From patent US9000027B2, “Chk1 suppresses a caspase-2 apoptotic response to DNA damage that bypasses p53, bcl-2 and caspase-3” (Dana-Farber Cancer Institute, Inc., priority 2008, dated 2015)

Legend:
HeLa cells = assay: Clonogenic survival assay after IR; assay type: cell-based, human; settings: Gö6976 500 nM from 24 hbIR
Procedure: Clonogenic assays were performed as described (Franken et al., 2006). Briefly, the cells were plated in 6-cm dishes, treated with Gö6976 followed by IR and cultured for 2 weeks. The medium was then removed, and the cells were rinsed by PBS and incubated with a mixture of 6.0% glutaraldehyde and 0.5% crystal violet (Sigma-Aldrich, St Louis, Mo., USA) for 30 min at room temperature. The dishes were washed with water, and colonies consisting of at least 50 cells were counted.

caspase-3 = assay: Western blot of cleaved caspase-3 in HeLa cells; assay type: cell-based, human; settings: 10 Gy, 24 hpIR, Gö6976 1 μM
Procedure: Protein extract (5-60 μg) was added to 4× gel loading buffer and 10× denaturing solution (Invitrogen) in appropriate proportions, and samples were incubated at 70° C. for 10 min. Samples were run at 200V for 1 hr on a 4-12% Bis-tris gradient gel (Invitrogen). After electrophoresis, samples were transferred for 1.5 hr (350 mA) to a Nitrocellulose membrane (Millipore) using a submerged transfer apparatus (Bio-Rad). Membranes were then blocked with 5% milk in Tris-buffered saline with 0.1% tween (TBST) and probed overnight at 4° C. with the following antibodies: anti-zebrafish Chk1 (diluted 1:200), anti-zebrafish Chk2 (1:200), anti-P-Cdc2 (1:1000), anti-actin (1:2000), anti-human ATR (1:500) and Stressgen anti-human-caspase-3 (1:500) for zebrafish immunoblots; and anti-caspase-2 (1:200), Upstate anti-caspase-3 (1:500), anti-P-ATM (1:500), anti-ATM (1:500), Santa Cruz anti-human Chk1 (1:1000), Santa Cruz anti-human Chk2 (1:1000), anti-P-Chk1 (1:500), anti-P-Chk2 (1:500), anti-P-H2A.X (1:2000), anti-P-cdc25C (1:1000), anti-P-HSP27 (1:1000), anti-HSP27 (1:1000), anti-P-Cdc2 (1:1000), anti-p53 (1:1000) and anti-GAPDH (1:5000) for immunoblots of human tumor cell lysates. Detailed references for all primary antibodies can be found in the ‘Antibodies’ section elsewhere herein.

[1] = tested on: Tg(rag2:EGFP-bcl-2) larvae; assay: T-cell radioresistance in Tg(rag2:EGFP-bcl-2) larvae; assay type: in vivo, zebrafish
Description: To test this notion in vivo, we exploited a zebrafish transgenic line expressing a stable EGFP-bcl-2 fusion transgene under control of the rag2 promoter (Langenau et al., 2005). Such Tg(rag2: EGFP-bcl-2) larvae are characterized by highly radioresistant T- and B-cells at 9 dpf. […] Together with our human cell culture studies, our in vivo analysis of Gö6976 in zebrafish raises the remarkable possibility that tumors disrupting p53 or its attendant downstream pathway—in other words, most human cancers—will respond favorably to Chk1 inhibitors.
(§1) Immediately before IR, 18-hpf embryos were dechorionated and transferred to fresh egg water containing 1% DMSO, with or without the following inhibitors at indicated final concentrations: KU55933 (10 μM; Sigma) (Hickson et al., 2004); Chk2 Inhibitor II (10 μM; Calbiochem) (Arienti et al., 2005); Gö6976 (1 μM; Calbiochem) (Kohn et al., 2003). Unless stated otherwise, embryos were exposed to the inhibitors for 6 hr, transferred to fresh egg water, rinsed five times for 5 min, and labeled with AO. For experiments with Tg(rag2:EGFP-bcl-2) larvae, larvae were incubated in the inhibitor solution at 4 dpf, irradiated at 5 dpf, rinsed at 6 dpf, incubated in fresh inhibitor for an additional 72 hr, and mounted live at 9 dpf for fluorescence microscopic analysis of EGFP expression.

p53^+/+ embryos = assay: Drug toxicity: AO reactivity and development of inhibitor-treated, non-irradiated p53+/+ embryos; assay type: in vivo, zebrafish; settings: 0 Gy
Description: Chk1 inhibitors hold considerable promise in cancer therapy, as they are expected to synergize with genotoxic agents to kill tumor cells lacking functional p53, without affecting normal cells (Kawabe, 2004; Zhou and Bartek, 2004). […] Gö6976 has not been tested in vivo in a vertebrate model system. We therefore evaluated it as well as specific Chk2 and ATM inhibitors in the zebrafish system. Drug toxicity was monitored by scoring the AO reactivity of inhibitor-treated, but non-irradiated, p53^+/+ embryos (left column in FIG. 8A). Unless otherwise indicated, the inhibitors were applied at 18 hpf (that is, immediately before IR) for a total of 6 hours.
as §1

Question: Which results are given for `Cn1c2ccccc2c2c3c(c4c5ccccc5n(CCC#N)c4c21)CNC3=O` [Gö6976]?
Answer: clonogenic radiosensitization (HeLa cells; 2 Gy): inability of Gö6976 to significantly radiosensitize the cells; reduction in number of colonies (HeLa cells; 3.2 Gy, colonies counted 14 dpIR): 50%; levels of cleaved caspase-3 (caspase-3): negligible; larvae with T-cell radioresistance suppressed ([1]; 15 Gy IR at 5 dpf, Gö6976 for 5 days from 4 dpf, scored 9 dpf, n=26, DMSO: none (n=28)): 58%; adverse effects of systemic treatment ([1]; larvae, 5 days exposure): without any apparent adverse effects; long-term development of non-irradiated treated embryos (p53^+/+ embryos; p53+/+): developed into normal adults without overt signs of spontaneous tumorigenesis or other pathologies; toxicity of the dose used (AO reactivity of non-irradiated embryos) (p53^+/+ embryos; Gö6976 1 μM, KU55933 10 μM, Chk2 Inhibitor II 10 μM): non-toxic
